{
  "source": "patent US7550469B2",
  "about": "“Heterocyclic amide derivatives and their use as dopamine D3 receptor ligands” (Aventis Pharmaceuticals Inc., priority 2001, dated 2009)",
  "biological_target": "T1, cloned human dopamine D3 receptors (Homo sapiens, UniProt P35462)",
  "T1 construct": "expressed in transfected cells; membrane homogenate",
  "T1 sequence (P35462 whole entry)": "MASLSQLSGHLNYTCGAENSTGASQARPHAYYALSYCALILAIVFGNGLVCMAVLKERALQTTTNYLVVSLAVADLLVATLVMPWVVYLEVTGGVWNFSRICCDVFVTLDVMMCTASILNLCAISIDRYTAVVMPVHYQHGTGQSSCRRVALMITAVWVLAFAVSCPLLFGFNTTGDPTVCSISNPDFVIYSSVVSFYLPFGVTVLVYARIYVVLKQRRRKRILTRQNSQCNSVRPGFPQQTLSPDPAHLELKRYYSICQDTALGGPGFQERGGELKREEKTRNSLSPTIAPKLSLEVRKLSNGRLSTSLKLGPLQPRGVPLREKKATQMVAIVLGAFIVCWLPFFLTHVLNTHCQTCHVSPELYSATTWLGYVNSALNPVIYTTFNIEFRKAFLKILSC",
  "assay": "[N-Methyl-3H]Spiroperidol binding to cloned human dopamine D3 receptors (Protocol 1)",
  "in_short": "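Membranes from CHO cells stably expressing cloned human D3 receptor were used for [N-methyl-3H]spiroperidol (60-90 Ci/mmol) binding. Assay buffer was 0.05 M Tris HCl pH 7.7 with 120 mM NaCl, 5 mM KCl, 2 mM CaCl2 and 1 mM MgCl2, optionally 0.1% ascorbic acid; total ligand concentration calculated from added CPM.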",
  "key": {"[1]": {"settings": "the 15th table, read-out: D3 Ki"}, "[2]": {"settings": "the 16th table, read-out: D3 Ki"}, "[3]": {"settings": "the 13th table, unit inferred, read-out: D3Ki"}, "[4]": {"settings": "the 19th table, read-out: D3 Ki"}},
  "note": "Read-outs that look alike come from different tables or passages of the source.",
  "data": [
    {"smiles": "O=C(NCCCCN1C2CCC1CC(c1noc3ccccc13)C2)c1cc2ccccc2s1", "note": "(stereo not drawn) [compound 816535]", "values": [
      {"measurement": "Ki", "setting": "[1]", "result": 66.4, "unit": "nM"}
    ]},
    {"smiles": "O=C(NCCCCN1C2CCC1CC(c1noc3ccccc13)C2)c1ccc(Br)cc1", "note": "(stereo not drawn) [compound 816536]", "values": [
      {"measurement": "Ki", "setting": "[1]", "result": 140, "unit": "nM"}
    ]},
    {"smiles": "O=C(NCCCCN1C2CCC1CC(c1noc3ccccc13)C2)c1ccccc1[N+](=O)[O-]", "note": "(stereo not drawn) [compound 816537]", "values": [
      {"measurement": "Ki", "setting": "[1]", "result": 411, "unit": "nM"}
    ]},
    {"smiles": "O=C(NCCCCN1C2CCC1CC(c1noc3ccccc13)C2)c1cccc2ccccc12", "note": "(stereo not drawn) [compound 816538]", "values": [
      {"measurement": "Ki", "setting": "[1]", "result": 178, "unit": "nM"}
    ]},
    {"smiles": "O=C(NCCCCN1C2CCC1CC(c1noc3ccccc13)C2)c1cccc(F)c1F", "note": "(stereo not drawn) [compound 816540]", "values": [
      {"measurement": "Ki", "setting": "[1]", "result": 225, "unit": "nM"}
    ]},
    {"smiles": "CSc1ncccc1C(=O)NCCCCN1C2CCC1CC(c1noc3ccccc13)C2", "note": "(stereo not drawn) [compound 816541]", "values": [
      {"measurement": "Ki", "setting": "[1]", "result": 511, "unit": "nM"}
    ]},
    {"smiles": "Nc1ccc(C(=O)NCCCCN2CCCN(c3csc4cc(F)ccc34)CC2)cc1", "note": "[compound 817258]", "values": [
      {"measurement": "Ki", "setting": "Table 2, read-out: D3K1", "result": 3.13, "unit": "nM"},
      {"measurement": "Ki", "setting": "[2]", "result": 3.13, "unit": "nM"}
    ]},
    {"smiles": "Nc1cc2ccccc2cc1C(=O)NCCCCN1CCCN(c2csc3cc(F)ccc23)CC1", "note": "[compound 817259]", "values": [
      {"measurement": "Ki", "setting": "Table 2, read-out: D3K1", "result": 2.93, "unit": "nM"},
      {"measurement": "Ki", "setting": "[2]", "result": 2.93, "unit": "nM"}
    ]},
    {"smiles": "O=C(NCCCCN1CCCN(c2csc3cc(F)ccc23)CC1)c1ccc2ncccc2c1", "note": "[compound 817262]", "values": [
      {"measurement": "Ki", "setting": "Table 2, read-out: D3K1", "result": 1.89, "unit": "nM"},
      {"measurement": "Ki", "setting": "[2]", "result": 1.89, "unit": "nM"}
    ]},
    {"smiles": "CN(C)c1ccc(C(=O)c2ccccc2C(=O)NCCCCN2CCCN(c3csc4cc(F)ccc34)CC2)cc1", "note": "[compound 817263]", "values": [
      {"measurement": "Ki", "setting": "Table 2, read-out: D3K1", "result": 331, "unit": "nM"},
      {"measurement": "Ki", "setting": "[2]", "result": 331, "unit": "nM"}
    ]},
    {"smiles": "Nc1ccc(O)cc1C(=O)NCCCCN1CCCN(c2csc3cc(F)ccc23)CC1", "note": "[compound 817264]", "values": [
      {"measurement": "Ki", "setting": "Table 2, read-out: D3K1", "result": 6.44, "unit": "nM"},
      {"measurement": "Ki", "setting": "[2]", "result": 6.44, "unit": "nM"}
    ]},
    {"smiles": "NS(=O)(=O)c1cc(C(=O)NCCCCN2CCCN(c3csc4cc(F)ccc34)CC2)c(O)c2ccccc12", "note": "[compound 817265]", "values": [
      {"measurement": "Ki", "setting": "Table 2, read-out: D3K1", "result": 46, "unit": "nM"},
      {"measurement": "Ki", "setting": "[2]", "result": 46, "unit": "nM"}
    ]},
    {"smiles": "O=C(NCCCCN1CCCN(c2csc3cc(F)ccc23)CC1)c1cccc2cccnc12", "note": "[compound 817266]", "values": [
      {"measurement": "Ki", "setting": "Table 2, read-out: D3K1", "result": 8.73, "unit": "nM"},
      {"measurement": "Ki", "setting": "[2]", "result": 8.73, "unit": "nM"}
    ]},
    {"smiles": "CCNc1ccccc1C(=O)NCCCCN1CCCN(c2csc3cc(F)ccc23)CC1", "note": "[compound 817267]", "values": [
      {"measurement": "Ki", "setting": "Table 2, read-out: D3K1", "result": 3.03, "unit": "nM"},
      {"measurement": "Ki", "setting": "[2]", "result": 3.03, "unit": "nM"}
    ]},
    {"smiles": "CN(C)c1cccc(C(=O)NCCCCN2CCCN(c3csc4cc(F)ccc34)CC2)c1", "note": "[compound 817268]", "values": [
      {"measurement": "Ki", "setting": "Table 2, read-out: D3K1", "result": 7.1, "unit": "nM"},
      {"measurement": "Ki", "setting": "[2]", "result": 7.1, "unit": "nM"}
    ]},
    {"smiles": "CN(C)c1ccccc1C(=O)NCCCCN1CCCN(c2csc3cc(F)ccc23)CC1", "note": "[compound 817269]", "values": [
      {"measurement": "Ki", "setting": "Table 2, read-out: D3K1", "result": 4.74, "unit": "nM"},
      {"measurement": "Ki", "setting": "[2]", "result": 4.74, "unit": "nM"}
    ]},
    {"smiles": "O=C(NCCCCN1CCCN(c2csc3cc(F)ccc23)CC1)c1cc2cc(O)ccc2[nH]1", "note": "[compound 817270]", "values": [
      {"measurement": "Ki", "setting": "[3]", "result": 0.448, "unit": "nM"}
    ]},
    {"smiles": "CC(C)(C)OC(=O)Cn1c(C(=O)NCCCCN2CCCN(c3csc4cc(F)ccc34)CC2)cc2ccccc21", "note": "[compound 817271]", "values": [
      {"measurement": "Ki", "setting": "Table 2, read-out: D3K1", "result": 326, "unit": "nM"},
      {"measurement": "Ki", "setting": "[2]", "result": 326, "unit": "nM"}
    ]},
    {"smiles": "NS(=O)(=O)c1ccc(C(=O)NCCCCN2CCCN(c3csc4cc(F)ccc34)CC2)cc1", "note": "[compound 817276]", "values": [
      {"measurement": "Ki", "setting": "Table 2, read-out: D3K1", "result": 2.44, "unit": "nM"},
      {"measurement": "Ki", "setting": "[2]", "result": 2.44, "unit": "nM"}
    ]},
    {"smiles": "O=C(NCCCCN1CCCN(c2csc3cc(F)ccc23)CC1)c1cccs1", "note": "[compound 822149]", "values": [
      {"measurement": "Ki", "setting": "[3]", "result": 2.7, "unit": "nM"}
    ]},
    {"smiles": "O=C(NCCCCN1CCCN(c2csc3cc(F)ccc23)CC1)c1ccc(Cl)cc1", "note": "[compound 822150]", "values": [
      {"measurement": "Ki", "setting": "[3]", "result": 6.3, "unit": "nM"}
    ]},
    {"smiles": "O=C(NCCCCN1CCCN(c2csc3cc(F)ccc23)CC1)c1cccc2ccccc12", "note": "[compound 822153]", "values": [
      {"measurement": "Ki", "setting": "[3]", "result": 6.1, "unit": "nM"}
    ]},
    {"smiles": "O=C(NCCCCN1CCCN(c2csc3cc(F)ccc23)CC1)c1cccc(C(F)(F)F)c1", "note": "[compound 822155]", "values": [
      {"measurement": "Ki", "setting": "[3]", "result": 10.8, "unit": "nM"}
    ]},
    {"smiles": "O=C(NCCCCN1CCCN(c2csc3cc(F)ccc23)CC1)c1ccc2ccccc2c1", "note": "[compound 822156]", "values": [
      {"measurement": "Ki", "setting": "[3]", "result": 0.67, "unit": "nM"}
    ]},
    {"smiles": "O=C(NCCCCN1CCCN(c2csc3cc(F)ccc23)CC1)c1cc2ccccc2s1", "note": "[compound 822158]", "values": [
      {"measurement": "Ki", "setting": "[3]", "result": 1.1, "unit": "nM"}
    ]},
    {"smiles": "O=C(Nc1cccc(CN2CCN(c3csc4cc(F)ccc34)CC2)c1)c1cccs1", "note": "[compound 822159]", "values": [
      {"measurement": "Ki", "setting": "[4]", "result": 96.7, "unit": "nM"}
    ]},
    {"smiles": "COc1cc(OC)cc(C(=O)Nc2cccc(CN3CCN(c4csc5cc(F)ccc45)CC3)c2)c1", "note": "[compound 822161]", "values": [
      {"measurement": "Ki", "setting": "[4]", "result": 163, "unit": "nM"}
    ]},
    {"smiles": "O=C(Nc1cccc(CN2CCN(c3csc4cc(F)ccc34)CC2)c1)c1ccc(OC(F)(F)F)cc1", "note": "[compound 822162]", "values": [
      {"measurement": "Ki", "setting": "[4]", "result": 380, "unit": "nM"}
    ]},
    {"smiles": "O=C(Nc1cccc(CN2CCN(c3csc4cc(F)ccc34)CC2)c1)c1cccc(F)c1", "note": "[compound 822164]", "values": [
      {"measurement": "Ki", "setting": "[4]", "result": 167, "unit": "nM"}
    ]},
    {"smiles": "COc1ccc(C(=O)Nc2cccc(CN3CCN(c4csc5cc(F)ccc45)CC3)c2)cc1OC", "note": "[compound 822180]", "values": [
      {"measurement": "Ki", "setting": "[4]", "result": 26.5, "unit": "nM"}
    ]},
    {"smiles": "COc1cccc(C(=O)Nc2cccc(CN3CCN(c4csc5cc(F)ccc45)CC3)c2)c1", "note": "[compound 822181]", "values": [
      {"measurement": "Ki", "setting": "[4]", "result": 332, "unit": "nM"}
    ]},
    {"smiles": "Cc1ccccc1C(=O)Nc1cccc(CN2CCN(c3csc4cc(F)ccc34)CC2)c1", "note": "[compound 822183]", "values": [
      {"measurement": "Ki", "setting": "[4]", "result": 154, "unit": "nM"}
    ]},
    {"smiles": "O=C(Nc1cccc(CN2CCN(c3csc4cc(F)ccc34)CC2)c1)c1cnc2ccccc2n1", "note": "[compound 822184]", "values": [
      {"measurement": "Ki", "setting": "[4]", "result": 271, "unit": "nM"}
    ]},
    {"smiles": "O=C(Nc1cccc(CN2CCN(c3csc4cc(F)ccc34)CC2)c1)c1ccncc1", "note": "[compound 822185]", "values": [
      {"measurement": "Ki", "setting": "[4]", "result": 50.7, "unit": "nM"}
    ]},
    {"smiles": "O=C(Nc1cccc(CN2CCN(c3csc4cc(F)ccc34)CC2)c1)c1cccnc1Cl", "note": "[compound 822186]", "values": [
      {"measurement": "Ki", "setting": "[4]", "result": 50.4, "unit": "nM"}
    ]},
    {"smiles": "COc1ccc(C(=O)NCc2ccccc2CN2CCN(c3csc4cc(F)ccc34)CC2)cc1OC", "note": "[compound 822188]", "values": [
      {"measurement": "Ki", "setting": "[4]", "result": 140, "unit": "nM"}
    ]}
  ]
}
